The target of this assay is T1, Avi-tagged FL MALT-1 (Homo sapiens, UniProt Q9UDY8).
T1 construct: Avi-tagged FL MALT-1 (Pharmaron, stored at −70° C.); Avi-tag; purchased Pharmaron
T1 sequence (Q9UDY8 1-824): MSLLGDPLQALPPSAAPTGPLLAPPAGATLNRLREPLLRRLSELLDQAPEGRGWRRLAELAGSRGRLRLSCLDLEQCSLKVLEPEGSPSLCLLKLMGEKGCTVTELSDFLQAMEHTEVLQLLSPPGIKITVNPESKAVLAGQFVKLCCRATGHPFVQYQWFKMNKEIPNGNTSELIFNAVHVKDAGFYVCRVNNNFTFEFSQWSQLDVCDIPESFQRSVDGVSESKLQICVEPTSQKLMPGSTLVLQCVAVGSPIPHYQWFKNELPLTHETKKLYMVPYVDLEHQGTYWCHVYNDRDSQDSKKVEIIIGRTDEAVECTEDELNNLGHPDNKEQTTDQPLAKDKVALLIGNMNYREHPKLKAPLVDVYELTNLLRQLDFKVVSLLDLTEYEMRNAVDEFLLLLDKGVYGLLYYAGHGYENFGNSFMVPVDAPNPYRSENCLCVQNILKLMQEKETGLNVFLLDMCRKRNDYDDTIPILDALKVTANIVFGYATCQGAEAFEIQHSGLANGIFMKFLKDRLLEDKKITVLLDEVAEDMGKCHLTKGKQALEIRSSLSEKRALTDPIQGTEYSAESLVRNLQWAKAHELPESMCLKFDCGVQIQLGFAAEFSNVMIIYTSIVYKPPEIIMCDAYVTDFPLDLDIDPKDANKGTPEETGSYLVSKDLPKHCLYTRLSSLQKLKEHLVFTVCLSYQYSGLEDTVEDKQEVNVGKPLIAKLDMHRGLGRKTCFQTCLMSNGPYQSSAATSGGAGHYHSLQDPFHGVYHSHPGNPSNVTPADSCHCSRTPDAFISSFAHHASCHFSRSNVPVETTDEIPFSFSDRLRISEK
The experiment in a line: MALT-1 Fluorogenic Peptide Cleavage Assay (MALT1 inhibition assay). Type of assay: biochemical. The note with it: Ac-LRSR-AMC peptide substrate; 30 min pre-incubation, 90 min reaction at room temperature; fluorescence. The procedure: Inhibition of MALT1 activity by a small molecule was evaluated using MALT-1 Fluorogenic Peptide Cleavage Assay. The assay utilizes a quenched AMC-labelled peptide that contains the MALT-1 recognition sequence and cleavage site (LRSR). MALT-1 mediated cleavage of the peptide relieves the quenching and leads to an increase in fluorescence at excitation (342 nm) and emission (441 nm).
The following reagents were obtained commercially and used to prepare standard reagent formulations as further described below: N-2-hydroxyethylpiperazine-N-2-ethane sulfonic acid (HEPES) (1 M, pH 7.5, stored at 4° C.), sodium citrate (stored at RT), tris(2-carboxyethyl)phosphine hydrochloride (T-CEP) (500 mM, stored at −20° C.), ethylenediaminetetraacetic acid (EDTA) (500 mM, stored at RT), dimethylsulfoxide (DMSO, stored at RT), 3-[(3-cholamidopropyl)dimethylammonio]-1-propane sulphate (CHAPS) (stored at RT), dimethylsulfoxide (DMSO), DMSO (Fisher Scientific, stored at RT), Avi-tagged FL MALT-1 (Pharmaron, stored at −70° C.), Ac-LRSR-AMC Peptide (SM Biochemicals, stored at −20° C.), and ultrapure water (MILLI-Q®).
The standard reagent formulations used in this assay were prepared and stored as follows. A 1.1 M solution of sodium citrate (161.3 g, 500 mL) was prepared and stored at room temperature. A 10% (w/v) CHAPS solution (2.0 g, 20 mL) was prepared and stored at 4° C. A 500 mM HEPES solution having pH of 6.89 was prepared from 200 mL of a 1 M HEPES solution having a pH of 7.5 using concentrated hydrochloric acid and brought to a final volume of 400 mL with MILLI-Q© H2O. The substrate, 10 mM Ac-LRSR-AMC Peptide, was prepared (10 mg, 1.370 mL DMSO) and stored at −20° C.
Compounds were plated to provide a 2% DMSO final concentration using a ProxiPlate-384 Plus F Black 384-shallow well microplate. The assay-ready plates were equilibrated to room temperature. A reaction buffer (30 mL total volume) was prepared by combining HEPES (pH 6.89, 25 mM, 1.5 mL), sodium citrate (660 mM, 18.0 mL), T-CEP (1 mM, 0.06 mL), EDTA (0.1 mM, 0.06 mL), CHAPS (0.05%, 0.15 mL), DMSO (2%, 0.6 mL), and MILLI-Q® H2O (10.23 mL; 9.63 mL when backfilled to 2% DMSO) followed by thorough mixing.
MALT-1 was thawed and kept on ice. Peptide substrate was thawed on the bench under ambient conditions. A MALT-1 enzyme working stock was prepared from Avi-tagged FL MALT-1 (40 nM in a prepared reagent volume of […]) and the reaction buffer (13.0 mL). MALT1 working stock (5 μL) was added to each well of the microplate. MALT-1 was pre-incubated with compounds for 30 minutes at room temperature.
Two substrate working stocks (Km and 10×Km) were prepared. The 1×Km substrate was prepared from Ac-LRSR-AMC Peptide (50 μM in a prepared reagent volume of […]) and the reaction buffer (6.965 mL). The 10×Km substrate was prepared from Ac-LRSR-AMC Peptide ([…] in a prepared reagent volume of 196.0 μL) and the reaction buffer (6.804 mL). The reaction was initiated by the addition of substrate working stock (5 μL, 50 μM) to Km plates and the addition of substrate working stock (5 μL 280 μM) to 10×Km plates. The plates were covered and incubated on the bench at room temperature for 90 minutes.
Fluorescence intensity was determined using a CLARIOstar microplate reader (BMG LABTECH) using the optimised AMC mode. Before taking readings, a 70% gain was applied on the neutral control well. Compound data were normalised to % Inhibition and used to plot sigmoidal concentration response curves to yield various parameters including IC50.

The values that follow come from US20260124222A1, “ISOTHIAZOLYLCARBOXAMIDE COMPOUNDS AND THEIR USE IN THERAPY” (HOTSPOT THERAPEUTICS, INC., priority 2022, published 2026).

In general, IC50 refers to the midpoint of a concentration-inhibition curve. A higher IC50 goes with lower potency.

Molecule `O=C(Nc1ccc(C(=O)N2CC(O)C2)c(Cl)c1)c1snc(-c2ccccc2)c1C(F)(F)F` [I-16, N-(3-CHLORO-4-(3-HYDROXYAZETIDINE-1-CARBONYL)PHENYL)-3-PHENYL-4-(TRIFLUOROMETHYL)ISOTHIAZOLE-5-CARBOXAMIDE] showed a 50% inhibitory concentration (IC50) of at most 0.4 µM. Turning to `O=C(Nc1ccc(C(=O)N2CC(O)C2)c(Cl)c1)c1snc(-c2ccccc2)c1C1CC1` [I-17, N-(3-CHLORO-4-(3-HYDROXYAZETIDINE-1-CARBONYL)PHENYL)-3-PHENYL-4—(CYCLOPROPYL)ISOTHIAZOLE-5-CARBOXAMIDE], the concentration for half-maximal inhibition (IC50) was at most 0.4 µM. Then `CN(C(=O)c1snc(-c2ccccc2)c1C(F)(F)F)c1cnc(-n2nccn2)c(Cl)c1` [I-18, N-(5-CHLORO-6-(2H-1,2,3-TRIAZOL-2-YL) PYRIDIN-3-YL)-N-METHYL-3-PHENYL-4-(TRIFLUOROMETHYL)ISOTHIAZOLE-5-CARBOXAMIDE], with at most 0.4 µM. Then `O=C(Nc1cnc(-n2nccn2)c(Cl)c1)c1snc(-c2ncccc2Cl)c1C(F)(F)F` [I-19, N-(5-CHLORO-6-(2H-1,2,3-TRIAZOL-2-YL) PYRIDIN-3-YL)-3-(3-CHLOROPYRIDIN-2-YL)-4-(TRIFLUOROMETHYL) ISOTHIAZOLE-5-CARBOXAMIDE], with at most 0.4 µM; and `N#Cc1cc(NC(=O)c2snc(-c3ncccc3Cl)c2C(F)(F)F)cnc1-n1nccn1` [I-20, 3-(3-CHLOROPYRIDIN-2-YL)-N-(5-CYANO-6-(2H-1,2,3-TRIAZOL-2-YL)PYRIDIN-3-YL)-4-(TRIFLUOROMETHYL)ISOTHIAZOLE-5-CARBOXAMIDE], with at most 0.4 µM. For `CN(C)C(=O)c1ccc(NC(=O)c2snc(-c3ccccc3)c2C2CC2)cc1Cl` [I-21, N-(3-CHLORO-4-(DIMETHYLCARBAMOYL) PHENYL)-4-CYCLOPROPYL-3-PHENYLISOTHIAZOLE-5-CARBOXAMIDE], the IC50 is at most 0.4 µM.

`O=C(Nc1ccc(C(=O)N2CCOCC2)c(Cl)c1)c1snc(-c2ccccc2)c1C1CC1` [I-22, N-(3-CHLORO-4-(MORPHOLINE-4-CARBONYL) PHENYL)-4-CYCLOPROPYL-3-PHENYLISOTHIAZOLE-5-CARBOXAMIDE] had an IC50 of at most 0.4 µM. Then `CNC(=O)c1ccc(NC(=O)c2snc(-c3ccccc3)c2C2CC2)cc1Cl` [I-23, N-(3-CHLORO-4-(METHYLCARBAMOYL) PHENYL)-4-CYCLOPROPYL-3-PHENYLISOTHIAZOLE-5-CARBOXAMIDE], with at most 0.4 µM.

The molecule `CN(CCO)C(=O)c1ccc(NC(=O)c2snc(-c3ccccc3)c2C2CC2)cc1Cl` [I-24, N-(3-CHLORO-4-((2-HYDROXYETHYL) (METHYL)CARBAMOYL)PHENYL)-4-CYCLOPROPYL-3-PHENYLISOTHIAZOLE-5-CARBOXAMIDE] returned a 50% inhibitory concentration (IC50) of at most 0.4 µM. In the case of `COCCN(C)C(=O)c1ccc(NC(=O)c2snc(-c3ccccc3)c2C2CC2)cc1Cl` [I-25, N-(3-CHLORO-4-((2-METHOXYETHYL) (METHYL) CARBAMOYL)PHENYL)-4-CYCLOPROPYL-3-PHENYL-ISOTHIAZOLE-5-CARBOXAMIDE] it was at most 0.4 µM; in that of `O=C(Nc1ccnc(C(F)(F)F)c1)c1snc(-c2ccccc2)c1C1CC1` [I-26, 3-PHENYL-4-CYCLOPROPYL-N-(2-(TRIFLUOROMETHYL)PYRIDIN-4-YL)ISOTHIAZOLE-5-CARBOXAMIDE], at most 0.4 µM; in that of `N#Cc1cc(NC(=O)c2snc(-c3ccccn3)c2C2CC2)cnc1-n1nccn1` [I-27, N-(5-CYANO-6-(2H-1,2,3-TRIAZOL-2-YL) PYRIDIN-3-YL)-4-CYCLOPROPYL-3-(PYRIDIN-2-YL)ISOTHIAZOLE-5-CARBOXAMIDE], at most 0.4 µM. For the molecule `N#Cc1cc(NC(=O)c2snc(-c3ncccc3Cl)c2C2CC2)cnc1-n1nccn1` [I-28, 3-(3-CHLOROPYRIDIN-2-YL)-N-(5-CYANO-6-(2H-1,2,3-TRIAZOL-2-YL)PYRIDIN-3-YL)-4-CYCLOPROPYLISOTHIAZOLE-5-CARBOXAMIDE], the half-inhibitory concentration (IC50) is at most 0.4 µM. In the case of `CN(C)c1ncc(NC(=O)c2snc(-c3ccccc3)c2C2CC2)cc1C#N` [I-29, N-(5-CYANO-6-(DIMETHYLAMINO)PYRIDIN-3-YL)-4-CYCLOPROPYL-3-PHENYLISOTHIAZOLE-5-CARBOXAMIDE] it was at most 0.4 µM; in that of `N#Cc1cncc(NC(=O)c2snc(-c3ccccc3)c2C2CC2)c1` [I-30, N-(5-CYANOPYRIDIN-3-YL)-4-CYCLOPROPYL-3-PHENYLISOTHIAZOLE-5-CARBOXAMIDE], at most 0.4 µM; in that of `O=C(Nc1cnc(-n2nccn2)c(Cl)c1)c1snc(-c2cnc3ccccn23)c1C(F)(F)F` [I-31], at most 0.4 µM. Then `N#Cc1cc(NC(=O)c2snc(-c3ccccc3)c2C2CC2)ccc1C(=O)N1CC(O)C1` [I-32], with at most 0.4 µM. In the case of `Cc1ncc(NC(=O)c2snc(-c3ccccc3)c2C2CC2)cc1Cl` [I-33] it was at most 0.4 µM; in that of `N#Cc1cc(NC(=O)c2snc(C3CCOCC3)c2C(F)(F)F)cnc1-n1nccn1` [I-34], at most 0.4 µM; in that of `O=C(Nc1cnc(-n2nccn2)c(Cl)c1)c1snc(-c2cccc3ncccc23)c1C(F)(F)F` [I-35, N-(5-CHLORO-6-(2H-1,2,3-TRIAZOL-2-YL) PYRIDIN-3-YL)-3-(QUINOLIN-5-YL)-4-(TRIFLUOROMETHYL)ISOTHIAZOLE-5-CARBOXAMIDE], at most 0.4 µM. `Cn1cc(-c2nsc(C(=O)Nc3cnc(-n4nccn4)c(C#N)c3)c2C(F)(F)F)ccc1=O` [I-36, N-(5-CYANO-6-(2H-1,2,3-TRIAZOL-2-YL)PYRIDIN-3-YL)-3-(1-METHYL-6-OXO-1,6-DIHYDROPYRIDIN-3-YL)-4-(TRIFLUORO-METHYL)ISOTHIAZOLE-5-CARBOXAMIDE] returned an IC50 of at most 0.4 µM. Then `Cn1cc(-c2nsc(C(=O)Nc3cnc(-n4nccn4)c(C#N)c3)c2C(F)(F)F)cn1` [I-37, N-(5-CYANO-6-(2H-1,2,3-TRIAZOL-2-YL)PYRIDIN-3-YL)-3-(1-METHYL-1H-PYRAZOL-4-YL)-4-(TRIFLUORO-METHYL)ISOTHIAZOLE-5-CARBOXAMIDE], with 0.4 to 1 µM; and `CC(C)c1nsc(C(=O)Nc2cnc(-n3nccn3)c(C#N)c2)c1C(F)(F)F` [I-38, N-(5-CYANO-6-(2H-1,2,3-TRIAZOL-2-YL) PYRIDIN-3-YL)-3-ISOPROPYL-4-(TRIFLUOROMETHYL)ISOTHIAZOLE-5-CARBOXAMIDE], with at most 0.4 µM; and `COc1c(-c2ccccc2)nsc1C(=O)Nc1cnc(-n2nccn2)c(Cl)c1` [I-39, N-(5-CHLORO-6-(2H-1,2,3-TRIAZOL-2-YL) PYRIDIN-3-YL)-4-METHOXY-3-PHENYLISOTHIAZOLE-5-CARBOXAMIDE], with at most 0.4 µM.
